Target: T1, human cloned 5-HT6 receptors (Homo sapiens, UniProt P50406)
T1 construct: expressed in transfected cells; host or cells: HeLa cells
Type: binding
Conditions: [3H]-LSD 3.0 nM, Hela cell membranes; read-out: 5-HT6 Binding Ki

T1 sequence (P50406 whole entry): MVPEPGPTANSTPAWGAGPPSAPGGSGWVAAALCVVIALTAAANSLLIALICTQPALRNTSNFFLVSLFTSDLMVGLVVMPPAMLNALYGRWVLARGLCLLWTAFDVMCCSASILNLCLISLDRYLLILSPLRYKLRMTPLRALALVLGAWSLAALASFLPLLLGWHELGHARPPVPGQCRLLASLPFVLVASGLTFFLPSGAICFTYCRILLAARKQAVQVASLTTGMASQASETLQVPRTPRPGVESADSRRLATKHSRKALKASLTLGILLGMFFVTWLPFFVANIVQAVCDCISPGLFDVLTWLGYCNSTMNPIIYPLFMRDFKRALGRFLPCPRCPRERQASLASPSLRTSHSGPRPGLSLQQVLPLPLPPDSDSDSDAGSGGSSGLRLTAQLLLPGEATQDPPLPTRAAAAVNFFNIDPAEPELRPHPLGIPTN

**Q.** With `COc1ccc2[nH]c3c(c2c1)C(=NNC(=N)N)CCC3` [Example 162, N′-(6-methoxy-1,2,3,9-tetrahydro-4H-carbazol-4-ylidene)carbonohydrazonic diamide] as the compound, how does the Ki read?
**A.** Its Ki is 4.7 nM.

Same assay, conditions: test compound dose 10 nM; displacement of [3H]-LSD

**Q.** For `N=C(N)NN=C1CCCc2[nH]c3ccc(Br)cc3c21` [Example 159, 2-(6-bromo-1,2,3,9-tetrahydro-4H-carbazol-4-ylidene)hydrazinecarboximidamide], which inhibition at 0.01 µM is on record?
**A.** The inhibition at 0.01 µM was 61.1%.

**Q.** With `N=C(N)NN=C1CCCc2[nH]c3ccccc3c21` [Example 161, 2-(1,2,3,9-tetrahydro-4H-carbazol-4-ylidene)hydrazinecarboximidamide] as the compound, how does the inhibition at 0.01 µM read?
**A.** Its inhibition at 0.01 µM is 39.5%.

Same assay, conditions: test compound dose 100 nM; displacement of [3H]-LSD; read-out: % Inhibition

**Q.** How did the inhibition at 0.1 µM turn out when `Cc1ccc2[nH]c3c(c2c1)C(=NNC(=N)N)CC(C)(C)C3` [Example 163, 2-(2,2,6-trimethyl-1,2,3,9-tetrahydro-4H-carbazol-4-ylidene)hydrazinecarboximidamide] was run?
**A.** Its inhibition at 0.1 µM is 38.5%.

**Q.** How did the inhibition at 0.1 µM turn out when `Cc1ccc2[nH]c3c(c2c1)C(=NNC(=N)N)CC(c1ccccc1)C3` (centres unmarked) [Example 164, 2-(6-methyl-2-phenyl-1,2,3,9-tetrahydro-4H-carbazol-4-ylidene)hydrazinecarboximidamide] was run?
**A.** Its inhibition at 0.1 µM is 27.6%.

**Q.** With `Cc1ccc2[nH]c3c(c2c1)C(=NNC(=N)N)CCC3` [Example 165, 2-(6-methyl-1,2,3,9-tetrahydro-4H-carbazol-4-ylidene)hydrazinecarboximidamide] as the compound, how does the inhibition at 0.1 µM read?
**A.** Its inhibition at 0.1 µM is 57.2%.

**Q.** How did the inhibition at 0.1 µM turn out when `CC(C)c1ccc2[nH]c3c(c2c1)C(=NNC(=N)N)CC(C)(C)C3` [Example 166, 2-(6-isopropyl-2,2-dimethyl-1,2,3,9-tetrahydro-4H-carbazol-4-ylidene)hydrazinecarboximidamide] was run?
**A.** Its inhibition at 0.1 µM is 27.3%.

**Q.** With `CC(C)c1ccc2[nH]c3c(c2c1)C(=NNC(=N)N)CC(c1ccccc1)C3` (centres unmarked) [Example 167, 2-(6-isopropyl-2-phenyl-1,2,3,9-tetrahydro-4H-carbazol-4ylidene)hydrazinecarboximidamide] as the compound, how does the inhibition at 0.1 µM read?
**A.** The inhibition at 0.1 µM was 35.2%.

**Q.** `CC1(C)CC(=NNC(=N)N)c2c([nH]c3ccc(OC(F)(F)F)cc23)C1` [Example 168, 2-[2,2-dimethyl-6-(trifluoromethoxy)-1,2,3,9-tetrahydro-4H-carbazol-4-ylidene]hydrazinecarboximidamide] was tested. Which inhibition at 0.1 µM did it give?
**A.** The inhibition at 0.1 µM was 26%.

**Q.** With `CC1(C)CC(=NNC(=N)N)c2c([nH]c3ccc(Br)cc23)C1` [Example 169, 2-(6-bromo-2,2-dimethyl-1,2,3,9-tetrahydro-4H-carbazol-4-ylidene)hydrazinecarboximidamide] as the compound, how does the inhibition at 0.1 µM read?
**A.** The inhibition at 0.1 µM was 33.9%.

**Q.** `N=C(N)NN=C1CC(c2ccccc2)Cc2[nH]c3ccc(Br)cc3c21` (centres unmarked) [Example 170, 2-(6-bromo-2-phenyl-1,2,3,9-tetrahydro-4H-carbazol-4-ylidene)hydrazinecarboximidamide] was tested. Which inhibition at 0.1 µM did it give?
**A.** The inhibition at 0.1 µM was 24.4%.

**Q.** Which inhibition at 0.1 µM does the source give for `CC1(C)CC(=NNC(=N)N)c2c([nH]c3ccc(Cl)cc23)C1` [Example 171, 2-(6-chloro-2,2-dimethyl-1,2,3,9-tetrahydro-4H-carbazol-4-ylidene)hydrazinecarboximidamide] here?
**A.** Its inhibition at 0.1 µM is 30.7%.

**Q.** For `N=C(N)NN=C1CC(c2ccccc2)Cc2[nH]c3ccc(Cl)cc3c21` (centres unmarked) [Example 172, 2-(6-chloro-2-phenyl-1,2,3,9-tetrahydro-4H-carbazol-4-ylidene)hydrazinecarboximidamide], which inhibition at 0.1 µM is on record?
**A.** The inhibition at 0.1 µM was 24.6%.

Same assay, conditions: test compound dose 1000 nM; displacement of [3H]-LSD

**Q.** How did the inhibition at 1 µM turn out when `Fc1ccc2[nH]c3c(c2c1)C(=NNC1=NCCN1)CCC3` [Example 157, 6-fluoro-1,2,3,9-tetrahydro-4H-carbazol-4-one 4,5-dihydro-1H-imidazol-2-ylhydrazone] was run?
**A.** Its inhibition at 1 µM is 96.3%.

**Q.** For `CN(N=C1CCCc2[nH]c3ccc(F)cc3c21)C1=NCCN1` [Example 158, 6-fluoro-1,2,3,9-tetrahydro-4H-carbazol-4-one 4,5-dihydro-1H-imidazol-2-yl(methyl)hydrazone], which inhibition at 1 µM is on record?
**A.** Its inhibition at 1 µM is 68.7%.

**Q.** For `CN(N=C1CCCc2[nH]c3ccc(Br)cc3c21)C1=NCCN1` [Example 160, 6-bromo-1,2,3,9-tetrahydro-4H-carbazol-4-one 4,5-dihydro-1H-imidazol-2-yl(methyl)hydrazone], which inhibition at 1 µM is on record?
**A.** The inhibition at 1 µM was 76%.

**Q.** With `COc1ccc2[nH]c3c(c2c1)C(=NNC(=N)N)CCC3` [Example 162, N′-(6-methoxy-1,2,3,9-tetrahydro-4H-carbazol-4-ylidene)carbonohydrazonic diamide] as the compound, how does the “% Inhibition” value read?
**A.** Its value is 98%.
